Reference: patent US7572600B2, “Enzymatic activities in chemokine-mediated inflammation” (Chemocentryx, Inc., priority 2004, dated 2009)
Where no end group is shown, it is not given here.

T1: FPRL1 (Homo sapiens, UniProt P25090)
T1 sequence (P25090 1-351): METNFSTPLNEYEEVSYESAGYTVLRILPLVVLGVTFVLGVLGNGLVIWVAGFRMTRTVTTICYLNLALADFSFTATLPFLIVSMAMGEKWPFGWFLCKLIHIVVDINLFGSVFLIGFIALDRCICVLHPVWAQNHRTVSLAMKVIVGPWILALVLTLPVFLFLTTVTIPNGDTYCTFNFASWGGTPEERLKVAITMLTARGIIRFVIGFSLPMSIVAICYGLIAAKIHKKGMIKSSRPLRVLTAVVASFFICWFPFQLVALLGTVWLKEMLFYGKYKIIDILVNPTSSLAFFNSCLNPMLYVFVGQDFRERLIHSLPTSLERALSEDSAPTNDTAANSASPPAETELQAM

T2: CCR1 (Homo sapiens, UniProt P32246)
T2 sequence (P32246 1-355): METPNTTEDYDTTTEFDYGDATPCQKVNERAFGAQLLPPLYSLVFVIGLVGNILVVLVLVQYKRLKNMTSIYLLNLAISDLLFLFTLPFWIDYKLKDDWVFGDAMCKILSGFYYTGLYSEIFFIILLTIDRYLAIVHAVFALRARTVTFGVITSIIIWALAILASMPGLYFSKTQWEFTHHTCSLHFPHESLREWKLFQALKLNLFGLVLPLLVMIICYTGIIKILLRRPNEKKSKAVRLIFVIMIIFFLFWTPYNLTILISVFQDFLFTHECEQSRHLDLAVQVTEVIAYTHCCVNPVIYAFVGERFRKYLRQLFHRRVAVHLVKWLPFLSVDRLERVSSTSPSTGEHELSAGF


Assays:
[1] = test system: murine bone marrow neutrophils; assay: Calcium responses and chemotaxis in murine bone marrow neutrophils; type: cell-based, mouse; settings: murine bone marrow neutrophils (not shown)
human neutrophils = assay: Calcium mobilization in freshly isolated human neutrophils; type: cell-based; settings: undigested chemokine or peptide (100 nM)
Method: (§1) Calcium Mobilization Assay. Cells were loaded for 1 hour with 2 μM indo-1/AM dye (Molecular Probes, Eugene, Oreg.) in culture medium, then washed with 10 ml PBS and resuspended at 10^6/ml in HBSS containing 1% FBS. Cytosolic calcium responses were determined using a Photon Technology International (Lawrenceville, N.J.) fluorimeter, with excitation at 350 nm and dual emission at 400 and 490 nm. Alternatively, cells were loaded with 5 μg/ml Fluo-4 AM dye (Molecular Probes, Eugene, Oreg.), then washed and analyzed on a Fluorometric Imaging Plate Reader 384 (FLIPR^384 Molecular Devices, Sunnyvale, Calif.), with 505 nm excitation and 530 nm emission.
(§2) Receptor signaling assay. For individual measurements, cells were loaded for 45 min at room temperature with 2 μM indo-1/AM (Invitrogen, Carlsbad Calif.) in culture medium, then washed with 10 ml PBS and resuspended at 10^6 cells/ml in HBSS containing 0.1% BSA. Cytosolic calcium levels were determined using a Photon Technology International fluorimeter (excitation at 350 nm, ratio of dual emission at 400 and 490 nm). For measuring calcium dose responses, cells were analyzed with a Fluorometric Imaging Plate Reader 384 (FLIPR^384) (Molecular Devices, Sunnyvale, Calif.). Cells were loaded for 1 hr at 37° C. with 5 μM fluo-4 in HBSS with 0.1% BSA, then washed, transferred to black-wall 96-well plates, and subsequently excited at 505 nm with emission recorded at 530 nm with a standard protocol provided by the manufacture. Cells were stimulated with agonists 20 s after the monitoring of fluorescence began. Data were analyzed and plotted in arbitrary units of fluorescence using Prism. To ensure that responses were specific to FPRL1, we utilized a selective small-molecule antagonist of human FPRL1, generated by ChemoCentryx, which was optimized from a high throughput compound library screening approach.

human monocytes = assay: Calcium mobilization in freshly isolated human monocytes; type: cell-based; settings: for calcium mobilization: undigested chemokine or peptide, 100 nM (CCL23β up to 250 nM)
Method: as §1, §2

FPRL1 = target: T1, FPRL1; assay: Receptor signaling (calcium mobilization) in L1.2-FPRL1 cells; type: cell-based; set-up: expressed in transfected cells; settings: for calcium mobilization in the FPRL1 transfectant: L1.2 cells stably expressing human FPRL1, undigested
Method: as §2
Since FPRL1 has been reported to interact with low affinity and/or potency with a spectrum of potential pathogenic ligands of viral, bacterial and endogenous origin, we performed comparative functional analyses to determine the precise functional domain for the SHAAGtide (FIG. 14). SHAAGtides containing N-terminal and C-terminal truncations and extensions were synthesized, and potencies for receptor signaling in L1.2-FPRL1 cells were tested. […] After removal of the N-terminal amino acid (Met) from SHAAGtide, its potency is reduced approximately 10 fold. Removal of the first two N-terminal amino acids (Met-Leu) totally abolished SHAAGtide's activity on FPRL1. Conversely, removal of the C-terminal three amino residues (AAG) from SHAAGtide had no effect on its activity on FPRL1. Removal of the C-terminal six residues (LSHAAG) reduced the peptide's potency only 3-fold. Many other purported naturally-occurring FPRL1 ligands, including serum amyloid A (SAA), beta-amyloid protein 42, lipoxin A4 and the bacterial tripeptide fMLP were tested.

CCR1 = target: T2, CCR1; assay: Competition binding with 125I-MIP-1α on human monocytes; set-up: endogenous in cells; host or cells: human CD14+ monocytes from buffy coats
Method: Binding assay. Competition binding studies were conducted using monocytes, L1.2-CCR1 or L1.2-FPRL1 cells. Cells were incubated for 3 hr at 4° C. with ^125I-MIP-1α (final concentration ˜0.05 nM) or ^125I-WKYMVm (final concentration ˜0.01 nM) in buffer (25 mM HEPES, 140 mM NaCl, 1 mM CaCl2, 5 mM MgCl2 and 0.2% BSA, adjusted to pH 7.1) in the presence of increasing amounts of unlabeled chemokine. Reactions were aspirated onto PEI-treated GF/B glass filters using a cell harvester (Packard). Filters were washed twice (25 mM HEPES, 500 mM NaCl, 1 mM CaCl2, 5 mM MgCl2, adjusted to pH 7.1). Scintillant (MicroScint-10; 35 μl) was added to the filters and counted in a Packard Topcount scintillation counter. Data were analyzed and plotted using Prism (GraphPad Software, San Diego, Calif.).

| calcium mobilization in the FPRL1 transfectant (FPRL1) | Designation and FPRL1 Activity (FPRL1; SHAAGtide and truncated/other variants) | inhibition of 125I-MIP-1α binding (CCR1) | Molecule | calcium responses and chemotaxis [1] | calcium mobilization (human neutrophils) | calcium mobilization (human monocytes) | magnitude of calcium signal versus CCL15 Δ24/leukotactin (human monocytes; both at 100 nM) |
| --- | --- | --- | --- | --- | --- | --- | --- |
| fully effective | sequence; high | did not inhibit | MLWRRKIGPQMTLSHAAG [SHAAGtide] | able to induce calcium responses and chemotaxis | equipotent to CCL23β Δ24 | equipotent to CCL23β Δ24 | – |
| fully effective | – | moderate competitors | CCL23β Δ24: truncated form of CCL23β lacking the 24-residue N-terminal domain, beginning with the SHAAGtide insertion (protein, listed as Homo sapiens) MLWRRKIGPQMTLSHAAGFHATSADCCISYTPRSIPCSLLESYFETNSECSKPGVIFLTKKGRRFCANPSDKQVQVCMRMLKLDTRIKTRKN | able to induce calcium responses and chemotaxis | very robust calcium response | particularly strong and sustained calcium profile | at least two fold higher |
